Reference: patent US20110230476A1, “PI3 KINASE INHIBITORS AND USES THEREOF” (AVILA THERAPEUTICS, INC., priority 2009, published 2011)
Entries after “also recorded” stand apart in the source; their conditions may differ.

Assays:
PI3Kα (p110α/p85α) = target: T1, PI3Kα (p110α/p85α) (Homo sapiens, UniProt P42336); assay: HTRF assay, potency against active PI3Kα; format: biochemical; conditions: for IC50: HTRF, [ATP]=50 μM, [di-C8-PIP2]=10 μM, 30 min pre-incubation, read-out: PI3Kα Inhibition
T1 construct: purchased BPS Bioscience (San Diego, Calif.) or Millipore (Billerica, Mass.)
Outline: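 IC50 came from a variable-slope fit of % inhibition, calculated from the HTRF emission ratio relative to wells with and without enzyme. Reactions with the active enzyme complex ran 30-60 minutes at 25 °C after ATP addition before stop and detection reagents.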

PI3Kγ (p120γ) = target: T2, PI3Kγ (p120γ) (Homo sapiens, UniProt P48736); assay: HTRF assay, potency against active PI3Kγ; format: biochemical; conditions: [ATP]=50 μM, [di-C8-PIP2]=10 μM, 30 min pre-incubation, read-out: PI3Kγ Inhibition
T2 construct: purchased BPS Bioscience (San Diego, Calif.) or Millipore (Billerica, Mass.)
Outline: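 End-point competition HTRF: enzyme (p110β/p85α 0.75 nM; p120γ 2-2.5 nM) with 10 μM di-C8-PIP2 pre-incubated 30 min at 25° C with compound, then 50 μM ATP added for 30-60 min at 25° C. Stopped, detected after 1 and 18 h; IC50 from variable-slope fit.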

PI3K = PI3K HCT116 cellular assay (Western blot); format: cell-based; conditions: Homo sapiens, HCT-116, HCT116 colon cancer cells, 1 hour incubation, read-out: PI3K Inhibition
Protocol: PI3K HCT116 Cellular Assay
Selected compounds were assayed in HCT116 colon cancer cells. […] Cells were then washed with PBS, lysed and the protein lysates were then recovered and analyzed by Western blot.

Phospho-Akt(Ser473) = assay: Dose response in SKOV3 cells as determined by in-cell Western; format: cell-based; conditions: Homo sapiens, SK-OV-3; SKOV3 cells, 1 hr; read-out: pAKT Inhibition in cell Western
Outline: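 SKOV3 cells treated with compound for 1 hr, then formaldehyde-fixed, permeabilised and stained overnight for phospho-Akt(Ser473) with anti-tubulin as a reference. Infrared secondary antibodies read at 680 and 800 nm channels by in-cell Western imaging.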

PI3Kα [1] = target: T3, PI3Kα (Homo sapiens, UniProt P42336); assay: Mass spectrometry of intact PI3Kα (Johns Hopkins), 3 hr incubation; format: binding; design: Johns Hopkins; conditions: 10× fold excess of compound, MALDI
Protocol: (§1) Mass Spectrometry for PI3K
Intact PI3Kα (Johns Hopkins) was incubated for 3 hr at a 10× fold excess of II-a-45 or II-a-49 to protein. Aliquots (3 μL) of the samples were diluted with 10 μL of 0.1% TFA prior to micro C4 ZipTipping directly onto the MALDI target using Sinapinic acid as the desorption matrix (10 mg/ml in 0.1% TFA:Acetonitrile 50:50).
Target sequence in this assay (P42336 whole entry): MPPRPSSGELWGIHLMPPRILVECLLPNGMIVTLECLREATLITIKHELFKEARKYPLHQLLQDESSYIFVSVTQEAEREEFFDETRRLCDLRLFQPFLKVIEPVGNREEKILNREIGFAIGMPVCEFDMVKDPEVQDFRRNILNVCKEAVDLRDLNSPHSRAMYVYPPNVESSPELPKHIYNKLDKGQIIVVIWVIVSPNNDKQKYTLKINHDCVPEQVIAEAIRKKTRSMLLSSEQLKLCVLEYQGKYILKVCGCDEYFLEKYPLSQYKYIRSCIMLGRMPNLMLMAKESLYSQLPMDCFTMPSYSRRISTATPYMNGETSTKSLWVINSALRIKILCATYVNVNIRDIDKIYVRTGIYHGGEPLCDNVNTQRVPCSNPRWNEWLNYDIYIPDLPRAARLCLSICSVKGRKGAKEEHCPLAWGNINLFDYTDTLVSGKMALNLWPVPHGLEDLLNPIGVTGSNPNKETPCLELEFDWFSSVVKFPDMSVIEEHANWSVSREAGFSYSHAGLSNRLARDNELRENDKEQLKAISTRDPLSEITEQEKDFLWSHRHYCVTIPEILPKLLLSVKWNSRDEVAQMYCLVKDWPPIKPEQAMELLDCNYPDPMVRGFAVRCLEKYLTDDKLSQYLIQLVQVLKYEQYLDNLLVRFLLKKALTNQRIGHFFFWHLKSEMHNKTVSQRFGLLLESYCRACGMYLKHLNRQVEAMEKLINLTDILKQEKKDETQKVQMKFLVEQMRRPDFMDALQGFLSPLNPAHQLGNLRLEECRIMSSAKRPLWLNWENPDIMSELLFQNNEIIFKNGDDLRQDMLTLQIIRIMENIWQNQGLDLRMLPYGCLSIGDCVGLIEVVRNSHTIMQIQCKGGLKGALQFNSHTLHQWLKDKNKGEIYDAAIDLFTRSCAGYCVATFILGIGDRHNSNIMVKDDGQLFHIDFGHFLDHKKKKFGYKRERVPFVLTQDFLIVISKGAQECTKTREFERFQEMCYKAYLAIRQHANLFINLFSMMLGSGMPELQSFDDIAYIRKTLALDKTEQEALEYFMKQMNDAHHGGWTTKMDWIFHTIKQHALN
Target sequence in this assay (P27986 322-600 partner limits assumed): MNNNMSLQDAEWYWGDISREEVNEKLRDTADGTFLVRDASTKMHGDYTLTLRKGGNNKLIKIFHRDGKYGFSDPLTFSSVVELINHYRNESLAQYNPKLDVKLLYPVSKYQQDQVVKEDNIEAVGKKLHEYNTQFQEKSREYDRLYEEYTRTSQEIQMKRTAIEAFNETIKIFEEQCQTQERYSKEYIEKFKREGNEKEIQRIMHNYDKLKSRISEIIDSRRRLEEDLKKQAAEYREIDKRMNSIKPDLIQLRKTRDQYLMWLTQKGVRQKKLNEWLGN

PI3Kα [2] = target: T3, PI3Kα; assay: Mass spectrometry of intact PI3Kα (Millipore, 14-602), 1 hr incubation; format: binding; design: purchased Millipore 14-602; conditions: 10× fold excess of compound, MALDI
Protocol: as §1
Target sequence in this assay (P42336 whole entry): as the sequence (P42336 whole entry) above
Target sequence in this assay (P27986 whole entry partner): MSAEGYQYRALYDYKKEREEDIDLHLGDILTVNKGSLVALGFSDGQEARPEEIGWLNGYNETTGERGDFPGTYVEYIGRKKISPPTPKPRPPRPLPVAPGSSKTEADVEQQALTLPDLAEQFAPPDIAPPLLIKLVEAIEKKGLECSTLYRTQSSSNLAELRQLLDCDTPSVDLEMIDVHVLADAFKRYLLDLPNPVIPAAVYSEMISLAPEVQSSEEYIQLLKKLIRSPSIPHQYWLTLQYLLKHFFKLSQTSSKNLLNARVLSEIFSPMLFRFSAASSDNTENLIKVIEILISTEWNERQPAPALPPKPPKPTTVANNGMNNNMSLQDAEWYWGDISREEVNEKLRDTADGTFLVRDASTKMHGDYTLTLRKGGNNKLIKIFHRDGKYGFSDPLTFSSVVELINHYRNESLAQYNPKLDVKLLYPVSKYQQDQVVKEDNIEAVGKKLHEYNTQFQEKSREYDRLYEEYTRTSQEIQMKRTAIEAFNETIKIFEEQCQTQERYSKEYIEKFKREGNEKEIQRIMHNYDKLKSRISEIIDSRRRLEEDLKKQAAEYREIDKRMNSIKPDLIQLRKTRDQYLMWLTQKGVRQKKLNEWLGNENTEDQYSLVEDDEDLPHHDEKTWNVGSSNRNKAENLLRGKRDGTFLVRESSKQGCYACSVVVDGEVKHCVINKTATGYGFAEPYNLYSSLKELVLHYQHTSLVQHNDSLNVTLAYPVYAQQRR
Aliquots (5 μl) of the samples were diluted with 15 μl of 0.2% TFA prior to micro C4 ZipTipping directly onto the MALDI target using Sinapinic acid as the desorption matrix (10 mg/ml in 0.1% TFA:Acetonitrile 50:50).

SKOV3 cells = assay: GI50 determinations in SKOV3 cells; format: cell-based; conditions: Homo sapiens, SK-OV-3; SKOV3 cells, 96 hours, Cell Titer Glo
Protocol: GI50 Determinations in SKOV3 Cells
A standard curve ranging from 10,000 to 50,000 cells was set up in a separate plate and allowed to adhere to the plate for 4-6 hours, at which time the plate was developed using Cell Titer-Glow (Promega, Madison, Wis.) according to manufacturer's instructions.
The next morning, 3-fold compound dilutions ranging from 10,000 nM to 40 nM were prepared in Proliferation Media containing 1% DMSO. 20 ul of each dilution was added to the SKOV3 cells plated the previous day resulting in a dose response curve from 1000 nM to 4 nM. The cells were incubated for 96 hours and then developed with Cell Titer Glo.
The cell numbers at the end of the assay were determined using the standard curve generated at the start of the assay. Growth inhibition was calculated using the following formulas and GI50s were determined by plotting the % growth inhibition vs. Log compound concentration in GraphPad.
%growth=100×(T−T0)/(C−T0)
T=Cell Number at end of assay T0=Cell Number at start of assay (5000) C=Number of cells in DMSO controls at end of assay
%growth inhibition=100−%growth

PI3Kβ (p110β/p85α) = target: T4, PI3Kβ (p110β/p85α) (Homo sapiens, UniProt P42338); assay: HTRF assay, potency against active PI3Kβ; format: biochemical; conditions: [ATP]=50 μM, [di-C8-PIP2]=10 μM, 30 min pre-incubation, read-out: PI3Kβ Inhibition
T4 construct: purchased BPS Bioscience (San Diego, Calif.) or Millipore (Billerica, Mass.)
Protocol: Homogeneous Time Resolved Fluorescence (HTRF) Assay Protocol for Potency Assessment Against the Active Forms of PI3Kα, PI3Kβ, and PI3Kγ
The mechanics of the assay platform are best described by the vendor (Millipore, Billerica, Mass.) on their website at the following URL: www.millipore.com/coa/tech1/74jt4z.
Briefly, Stop solution (Stop A, #33-007 and Stop B, #33-009; 3:1 ratio) and Detection Mix (from DMC, #33-015 with DMA, #33-011 and DMB, #33-013; 18:1:1 ratio) were prepared as recommended by the manufacturer about 2 hrs prior to use. […] Lipid kinase reactions were started with the addition of 5 μL of ATP solution, mixed for 15 sec on a rotary plate shaker and incubated for 30-60 minutes at 25° C. Next, reactions were stopped with a 5 μL addition of Stop solution immediately followed by a 5 μL volume of Detection Mix. […] At the conclusion of each assay, the HTRF ratio from fluorescence emission values for each well was calculated and % Inhibition determined from averaged controls wells (+/−PI3K enzyme). % Inhibition values for each compound were then plotted against inhibitor concentration to estimate IC50 from log [Inhibitor] vs Response, Variable Slope model in GraphPad Prism from GraphPad Software (San Diego, Calif.).

T1 sequence (P42336 whole entry): as the sequence (P42336 whole entry) above
T1 sequence (P27986 whole entry partner): as the sequence (P27986 whole entry partner) above
T2 sequence (P48736 whole entry): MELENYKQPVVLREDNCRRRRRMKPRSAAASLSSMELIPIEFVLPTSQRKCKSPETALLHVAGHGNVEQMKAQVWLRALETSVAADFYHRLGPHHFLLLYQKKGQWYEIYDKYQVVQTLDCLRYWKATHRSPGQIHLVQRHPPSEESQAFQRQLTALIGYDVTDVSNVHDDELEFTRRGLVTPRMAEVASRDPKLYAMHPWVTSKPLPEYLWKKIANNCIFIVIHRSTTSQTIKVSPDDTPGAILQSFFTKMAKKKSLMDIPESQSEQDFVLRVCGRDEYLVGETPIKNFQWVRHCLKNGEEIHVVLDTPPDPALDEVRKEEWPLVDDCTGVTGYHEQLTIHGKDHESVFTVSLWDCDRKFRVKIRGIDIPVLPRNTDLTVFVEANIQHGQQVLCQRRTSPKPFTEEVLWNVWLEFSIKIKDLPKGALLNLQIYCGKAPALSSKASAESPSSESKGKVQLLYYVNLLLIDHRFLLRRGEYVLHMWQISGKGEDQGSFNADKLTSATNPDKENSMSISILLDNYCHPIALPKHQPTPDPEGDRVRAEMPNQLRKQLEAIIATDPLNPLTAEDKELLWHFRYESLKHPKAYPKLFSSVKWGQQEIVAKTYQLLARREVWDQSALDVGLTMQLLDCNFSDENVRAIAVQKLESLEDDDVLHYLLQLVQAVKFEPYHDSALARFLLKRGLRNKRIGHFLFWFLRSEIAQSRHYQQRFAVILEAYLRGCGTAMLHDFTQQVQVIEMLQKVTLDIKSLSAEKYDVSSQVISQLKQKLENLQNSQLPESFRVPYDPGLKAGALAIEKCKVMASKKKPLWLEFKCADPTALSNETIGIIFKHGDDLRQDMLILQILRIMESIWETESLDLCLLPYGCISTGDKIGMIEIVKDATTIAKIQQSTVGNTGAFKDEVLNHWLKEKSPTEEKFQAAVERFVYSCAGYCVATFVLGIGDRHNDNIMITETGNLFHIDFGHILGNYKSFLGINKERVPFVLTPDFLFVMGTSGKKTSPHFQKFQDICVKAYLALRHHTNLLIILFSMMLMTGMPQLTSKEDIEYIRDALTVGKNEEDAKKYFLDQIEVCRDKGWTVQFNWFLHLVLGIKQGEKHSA
T4 sequence (P42338 whole entry): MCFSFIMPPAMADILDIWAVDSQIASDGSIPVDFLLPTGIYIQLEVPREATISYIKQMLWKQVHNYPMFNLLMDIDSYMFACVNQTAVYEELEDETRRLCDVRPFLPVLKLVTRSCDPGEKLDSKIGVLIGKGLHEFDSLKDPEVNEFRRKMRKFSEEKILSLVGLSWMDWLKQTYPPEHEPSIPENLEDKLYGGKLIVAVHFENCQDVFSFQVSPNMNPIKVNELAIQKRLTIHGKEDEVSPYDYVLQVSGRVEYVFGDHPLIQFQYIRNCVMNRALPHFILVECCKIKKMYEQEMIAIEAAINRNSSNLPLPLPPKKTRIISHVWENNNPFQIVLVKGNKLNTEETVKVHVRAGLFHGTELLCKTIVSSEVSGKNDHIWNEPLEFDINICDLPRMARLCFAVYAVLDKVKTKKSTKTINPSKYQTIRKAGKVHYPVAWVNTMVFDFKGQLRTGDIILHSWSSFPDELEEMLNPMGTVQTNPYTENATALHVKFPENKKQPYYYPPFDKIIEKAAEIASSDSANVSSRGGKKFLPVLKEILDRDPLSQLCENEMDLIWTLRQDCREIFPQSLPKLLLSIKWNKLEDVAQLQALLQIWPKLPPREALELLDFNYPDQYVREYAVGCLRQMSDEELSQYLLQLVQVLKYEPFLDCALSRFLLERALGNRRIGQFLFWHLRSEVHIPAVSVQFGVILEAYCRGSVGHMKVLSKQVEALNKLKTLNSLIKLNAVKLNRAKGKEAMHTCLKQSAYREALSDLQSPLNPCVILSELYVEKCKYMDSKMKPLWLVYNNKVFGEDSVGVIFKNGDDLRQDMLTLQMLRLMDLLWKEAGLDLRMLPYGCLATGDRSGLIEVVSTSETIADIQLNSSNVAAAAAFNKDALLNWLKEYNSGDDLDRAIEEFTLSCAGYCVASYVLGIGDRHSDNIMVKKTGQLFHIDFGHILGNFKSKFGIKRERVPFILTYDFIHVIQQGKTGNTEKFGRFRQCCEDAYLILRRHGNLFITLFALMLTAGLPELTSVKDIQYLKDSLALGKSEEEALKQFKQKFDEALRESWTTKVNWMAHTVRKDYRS
T4 sequence (P27986 whole entry partner): as the sequence (P27986 whole entry partner) above

Row | IC50 (PI3Kα (p110α/p85α)) [nM] | IC50 (PI3Kγ (p120γ)) [nM] | EC50 (Phospho-Akt(Ser473)) [nM] | covalent modification of PI3Kα (PI3Kα [1]) | covalent modification of PI3Kα (PI3Kα [2]) | Structure (SMILES) | other results
1 | 10 to 100 | – | 10 to 100 | – | similarly modify | C=CC(=O)Nc1ccc(CC(=O)N2CC=C(c3cc(-c4cnc(N)nc4)nc(N4CCOCC4)c3)CC2)cc1 [XII-51, N-(4-(2-(4-(2-(2-aminopyrimidin-5-yl)-6-morpholinopyridin-4-yl)-5,6-dihydropyridin-1(2H)-yl)-2-oxoethyl)phenyl)acrylamide] | –
2 | > 1000 | – | 100 to 1000 | – | similarly modify | CC(C)=CC(=O)CCC(=O)N1CC2(CCN(c3cc(-c4cnc(N)nc4)nc(N4CCOCC4)c3)CC2)C1 [XII-42, 1-(7-(2-(2-aminopyrimidin-5-yl)-6-morpholinopyridin-4-yl)-2,7-diazaspiro[3.5]nonan-2-yl)-6-methylhept-5-ene-1,4-dione] | –
3 | 100 to 1000 | – | 100 to 1000 | – | covalent modification | C=CC(=O)Nc1ccc(CC(=O)N2CCN(c3cc(-c4cnc(N)nc4)nc(N4CCOCC4)c3)CC2)cc1 [XII-54] | mass shift of PI3Kα (PI3Kα [2]): 542 Da; mass shift of PI3Kα, per cent in brackets (PI3Kα [2]): 103%
4 | 100 to 1000 | – | 100 to 1000 | – | similarly modify | C=CC(=O)Nc1ccc(C(=O)N2CCC3(CC2)CN(c2cc(-c4cnc(N)nc4)nc(N4CCOCC4)c2)C3)cc1 [XII-52, N-(4-(2-(2-(2-aminopyrimidin-5-yl)-6-morpholinopyridin-4-yl)-2,7-diazaspiro[3.5]nonane-7-carbonyl)phenyl)acrylamide] | –
5 | > 1000 | – | – | – | similarly modify | CC(C)=CC(=O)CCc1ccc(C#Cc2cc(-c3cnc(N)nc3C)nc(N3CCOCC3)c2)cc1 [XII-18, 1-(4-((2-(2-amino-4-methylpyrimidin-5-yl)-6-morpholinopyridin-4-yl)ethynyl)phenyl)-5-methylhex-4-en-3-one] | –
6 | 100 to 1000 | – | – | – | similarly modify | CC(C)=CC(=O)c1ccc(CCNC(=O)c2cc(-c3cnc(N)nc3C)nc(N3CCOCC3)c2)cc1 [XII-15, 2-(2-amino-4-methylpyrimidin-5-yl)-N-(4-(3-methylbut-2-enoyl)phenethyl)-6-morpholinoisonicotinamide] | –

Continued, compound first:

Row | Structure (SMILES) | IC50 (PI3Kα (p110α/p85α)) [nM] | IC50 (PI3Kγ (p120γ)) [nM] | EC50 (Phospho-Akt(Ser473)) [nM] | covalent modification of PI3Kα (PI3Kα [1]) | covalent modification of PI3Kα (PI3Kα [2]) | other results
7 | C/C=C/C(=O)CCC(=O)NCC(=O)N1CCN(Cc2cc3nc(-c4cccc(O)c4)nc(N4CCOCC4)c3s2)CC1 [II-a-37, (E)-N-(2-(4-((2-(3-hydroxyphenyl)-4-morpholinothieno[3,2-d]pyrimidin-6-yl)methyl)piperazin-1-yl)-2-oxoethyl)-4-oxohept-5-enamide] | < 10 | > 1000 | 100 to 1000 | completely modify | – | EC50 (PI3K): 20 to 100 nM
8 | C/C=C/C(=O)CCC(=O)N1CC=C(c2cc3nc(-c4cccc(O)c4)nc(N4CCOCC4)c3s2)CC1 [II-a-45, (E)-1-(4-(2-(3-hydroxyphenyl)-4-morpholinothieno[3,2-d]pyrimidin-6-yl)-5,6-dihydropyridin-1(2H)-yl)hept-5-ene-1,4-dione] | < 10 | 100 to 1000 | ≤ 10 | covalent modification; also recorded: complete modification | – | EC50 (PI3K): 100 to 500 nM; positive mass shift of PI3Kα (PI3Kα [1]): 563 Da
9 | CC(C)/C=C/C(=O)CCC(=O)N1CCN(Cc2cc3nc(-c4cccc5[nH]ncc45)nc(N4CCOCC4)c3s2)CC1 [II-a-54, (E)-1-(4-((2-(1H-indazol-4-yl)-4-morpholinothieno[3,2-d]pyrimidin-6-yl)methyl)piperazin-1-yl)-7-methyloct-5-ene-1,4-dione] | 10 to 100 | > 1000 | – | completely modify | – | –
10 | C/C=C/C(=O)CCC(=O)NCC(=O)N1CCN(Cc2cc3nc(-c4cccc5[nH]ncc45)nc(N4CCOCC4)c3s2)CC1 [II-a-16, (E)-N-(2-(4-((2-(1H-indazol-4-yl)-4-morpholinothieno[3,2-d]pyrimidin-6-yl)methyl)piperazin-1-yl)-2-oxoethyl)-4-oxohept-5-enamide] | < 10 | > 1000 | – | completely modify | – | times more potent than its reversible counterpart II^R-a-16 (PI3Kα (p110α/p85α); PI3Kα HTRF assay): about 35 times; EC50 (PI3K): 100 to 500 nM
11 | C=CC(=O)Nc1ccc(C(=O)N2CC=C(c3cc4nc(-c5cnc(N)nc5)cc(N5CCOCC5)c4s3)CC2)cc1 [II-g-2, N-(4-(4-(5-(2-aminopyrimidin-5-yl)-7-morpholinothieno[3,2-b]pyridin-2-yl)-1,2,3,6-tetrahydropyridine-1-carbonyl)phenyl)acrylamide] | 100 to 1000 | 100 to 1000 | ≤ 10 | – | – | GI50 (SKOV3 cells): 100 to 1000 nM
12 | C=CC(=O)Nc1ccc(CC(=O)N2CCC(n3ncc4c(N5CCOCC5)nc(-c5ccc(NC(=O)NC)cc5)nc43)CC2)cc1 [VII-9, N-(4-(2-(4-(6-(4-(3-methylureido)phenyl)-4-morpholino-1H-pyrazolo[3,4-d]pyrimidin-1-yl)piperidin-1-yl)-2-oxoethyl)phenyl)acrylamide] | 100 to 1000 | – | 100 to 1000 | – | – | GI50 (SKOV3 cells): 100 to 1000 nM
13 | CC(C)=CC(=O)CCCC(=O)N1CC=C(c2cc3nc(-c4cnc(N)nc4)nc(C4=CCOCC4)c3s2)CC1 [II-a-169] | 10 to 100 | 100 to 1000 | – | – | – | IC50 (PI3Kβ (p110β/p85α)): > 1000 nM
14 | C=C(C)C(=O)CCC(=O)NCC(=O)N1CCN(Cc2cc3nc(-c4cccc5[nH]ncc45)nc(N4CCOCC4)c3s2)CC1 [II-a-33, N-(2-(4-((2-(1H-indazol-4-yl)-4-morpholinothieno[3,2-d]pyrimidin-6-yl)methyl)piperazin-1-yl)-2-oxoethyl)-5-methyl-4-oxohex-5-enamide] | 10 to 100 | > 1000 | – | completely modify | – | EC50 (PI3K): 20 to 100 nM
